Source: ChEMBL document CHEMBL1136921, “Benzylguanidines and other galegine analogues inducing weight loss in mice” (J Med Chem, 2009)
The source made the active and inactive calls. No cut-off for these calls is given here.

Key:
Mus musculus [1] = assay: Hypoglycemic activity in lean normal BALB/c mouse assessed as blood glucose level at 0.54 mmol/kg/day administered through diet for 7 days relative to time-matched control; format: functional
Mus musculus [2] = assay: Antiobesity activity in lean normal BALB/c mouse assessed as change in average daily food intake at 0.54 mmol/kg/day administered through diet for 7 days relative to time-matched control; format: functional
Mus musculus [3] = assay: Antiobesity activity in lean normal BALB/c mouse assessed as change in average daily weight at 0.54 mmol/kg/day administered through diet for 7 days relative to time-matched control; format: functional
Mus musculus [4] = assay: Toxicity in lean normal BALB/c mouse assessed as overt signs of behavioural changes at equimolar dose of 0.5 mmol/kg galegine administered daily through diet for 7 days; format: organism-based; details: in vivo, po, 168 h
Mus musculus [5] = assay: Antiobesity activity in ob/ob mouse model assessed as change in average daily weight at 0.26 mmol/kg/day administered through diet for 28 days relative to time-matched control; format: functional
Mus musculus [6] = assay: Antiobesity activity in ob/ob mouse model assessed as change in average daily food intake at 0.26 mmol/kg/day administered through diet for 28 days relative to time-matched control; format: functional
[7] = Metabolic stability in ob/ob mouse liver microsomes assessed as oxidative hydroxylation at 50 uM after 45 mins by HPLC-MS analysis; format: ADME, Microsome; details: 0.75 h
Mus musculus [8] = assay: Hypoglycemic activity in ob/ob mouse model assessed as blood glucose level at 0.26 mmol/kg/day administered through diet for 28 days relative to time-matched control; format: functional
Mus musculus [9] = assay: Antiobesity activity in high fat diet-induced obese BALB/c mouse model assessed as change in average daily body weight at 0.43 mmol/kg/day administered through diet for 28 days relative to time-matched control; format: functional
Mus musculus [10] = assay: Antiobesity activity in high fat diet-induced obese BALB/c mouse model assessed as change in average daily food intake at 0.43 mmol/kg/day administered through diet for 28 days relative to time-matched control; format: functional
Mus musculus [11] = assay: Hypoglycemic activity in high fat diet-induced obese BALB/c mouse model assessed as blood glucose level at 0.43 mmol/kg/day administered through diet for 28 days relative to time-matched control; format: functional
Mus musculus [12] = assay: Antiobesity activity in lean normal BALB/c mouse assessed as change in average daily food intake at 0.60 mmol/kg/day administered through diet for 7 days relative to time-matched control; format: functional
Mus musculus [13] = assay: Antiobesity activity in lean normal BALB/c mouse assessed as change in average daily weight at 0.60 mmol/kg/day administered through diet for 7 days relative to time-matched control; format: functional
Mus musculus [14] = assay: Hypoglycemic activity in lean normal BALB/c mouse assessed as blood glucose level at 0.51 mmol/kg/day administered through diet for 7 days relative to time-matched control; format: functional
Mus musculus [15] = assay: Antiobesity activity in lean normal BALB/c mouse assessed as change in average daily food intake at 0.51 mmol/kg/day administered through diet for 7 days relative to time-matched control; format: functional
Mus musculus [16] = assay: Antiobesity activity in lean normal BALB/c mouse assessed as change in average daily weight at 0.51 mmol/kg/day administered through diet for 7 days relative to time-matched control; format: functional
Mus musculus [17] = assay: Hypoglycemic activity in lean normal BALB/c mouse assessed as blood glucose level at 0.62 mmol/kg/day administered through diet for 7 days relative to time-matched control; format: functional
Mus musculus [18] = assay: Antiobesity activity in lean normal BALB/c mouse assessed as change in average daily food intake at 0.62 mmol/kg/day administered through diet for 7 days relative to time-matched control; format: functional
Mus musculus [19] = assay: Antiobesity activity in lean normal BALB/c mouse assessed as change in average daily weight at 0.62 mmol/kg/day administered through diet for 7 days relative to time-matched control; format: functional
Mus musculus [20] = assay: Antiobesity activity in ob/ob mouse model assessed as change in average daily weight at 0.27 mmol/kg/day administered through diet for 28 days relative to time-matched control; format: functional
Mus musculus [21] = assay: Antiobesity activity in ob/ob mouse model assessed as change in average daily food intake at 0.27 mmol/kg/day administered through diet for 28 days relative to time-matched control; format: functional
Mus musculus [22] = assay: Hypoglycemic activity in ob/ob mouse model assessed as blood glucose level at 0.27 mmol/kg/day administered through diet for 28 days relative to time-matched control; format: functional
Mus musculus [23] = assay: Antiobesity activity in high fat diet-induced obese BALB/c mouse model assessed as change in average daily body weight at 0.45 mmol/kg/day administered through diet for 28 days relative to time-matched control; format: functional
Mus musculus [24] = assay: Antiobesity activity in high fat diet-induced obese BALB/c mouse model assessed as change in average daily food intake at 0.45 mmol/kg/day administered through diet for 28 days relative to time-matched control; format: functional
Mus musculus [25] = assay: Hypoglycemic activity in high fat diet-induced obese BALB/c mouse model assessed as blood glucose level at 0.45 mmol/kg/day administered through diet for 28 days relative to time-matched control; format: functional
Mus musculus [26] = assay: Antiobesity activity in lean normal BALB/c mouse assessed as change in average daily food intake at 0.40 mmol/kg/day administered through diet for 7 days relative to time-matched control; format: functional
Mus musculus [27] = assay: Hypoglycemic activity in lean normal BALB/c mouse assessed as blood glucose level at 0.40 mmol/kg/day administered through diet for 7 days relative to time-matched control; format: functional
Mus musculus [28] = assay: Antiobesity activity in lean normal BALB/c mouse assessed as change in average daily weight at 0.40 mmol/kg/day administered through diet for 7 days relative to time-matched control; format: functional
Mus musculus [29] = assay: Antiobesity activity in lean normal BALB/c mouse assessed as change in average daily food intake at 0.59 mmol/kg/day administered through diet for 7 days relative to time-matched control; format: functional
Mus musculus [30] = assay: Hypoglycemic activity in lean normal BALB/c mouse assessed as blood glucose level at 0.59 mmol/kg/day administered through diet for 7 days relative to time-matched control; format: functional
Mus musculus [31] = assay: Antiobesity activity in lean normal BALB/c mouse assessed as change in average daily weight at 0.59 mmol/kg/day administered through diet for 7 days relative to time-matched control; format: functional
Mus musculus [32] = assay: Antiobesity activity in ob/ob mouse model assessed as change in average daily weight at 0.24 mmol/kg/day administered through diet for 28 days relative to time-matched control; format: functional
Mus musculus [33] = assay: Antiobesity activity in ob/ob mouse model assessed as change in average daily food intake at 0.24 mmol/kg/day administered through diet for 28 days relative to time-matched control; format: functional
Mus musculus [34] = assay: Hypoglycemic activity in ob/ob mouse model assessed as blood glucose level at 0.24 mmol/kg/day administered through diet for 28 days relative to time-matched control; format: functional
Mus musculus [35] = assay: Antiobesity activity in high fat diet-induced obese BALB/c mouse model assessed as change in average daily body weight at 0.42 mmol/kg/day administered through diet for 28 days relative to time-matched control; format: functional
Mus musculus [36] = assay: Antiobesity activity in high fat diet-induced obese BALB/c mouse model assessed as change in average daily food intake at 0.42 mmol/kg/day administered through diet for 28 days relative to time-matched control; format: functional
Mus musculus [37] = assay: Hypoglycemic activity in high fat diet-induced obese BALB/c mouse model assessed as blood glucose level at 0.42 mmol/kg/day administered through diet for 28 days relative to time-matched control; format: functional
Mus musculus [38] = assay: Antiobesity activity in lean normal BALB/c mouse assessed as change in average daily weight at equimolar dose of 0.5 mmol/kg galegine administered daily through diet for 7 days; format: functional, organism-based
Mus musculus [39] = assay: Antiobesity activity in lean normal BALB/c mouse assessed as change in average daily food intake at equimolar dose of 0.5 mmol/kg galegine administered daily through diet for 7 days; format: functional, organism-based
Mus musculus [40] = assay: Hypoglycemic activity in lean normal BALB/c mouse assessed as blood glucose level at equimolar dose of 0.5 mmol/kg galegine administered daily through diet for 7 days; format: functional, organism-based
Mus musculus [41] = assay: Antidiabetic activity in lean normal BALB/c mouse assessed as effect on blood lactate level at equimolar dose of 0.5 mmol/kg galegine administered daily through diet for 7 days; format: functional, organism-based

Question: Which Activity (Mus musculus [1]) does the source give for N=C(N)NCc1ccccc1 here?
Answer: The Activity was 60%.

Question: And the Activity (Mus musculus [2])?
Answer: The Activity was -28.1%.

Question: What about the Activity (Mus musculus [3]) of the same molecule?
Answer: Its Activity is -10.4%.

Question: What about the Activity (Mus musculus [4]) of the same molecule?
Answer: Its Activity is “Non-toxic”.

Question: And the Activity (Mus musculus [5])?
Answer: The Activity was -6.8%.

Question: What about the Activity (Mus musculus [6]) of the same molecule?
Answer: The Activity was -29.3%.

Question: What about the Activity [7] of the same molecule?
Answer: The Activity was “Stable”.

Question: And the Activity (Mus musculus [8])?
Answer: Its Activity is 82%.

Question: What about the Activity (Mus musculus [9]) of the same molecule?
Answer: The Activity was -10.6%.

Question: What about the Activity (Mus musculus [10]) of the same molecule?
Answer: The Activity was -14.9%.

Question: What about the Activity (Mus musculus [11]) of the same molecule?
Answer: Its Activity is 90%.

Question: With COc1ccccc1CNC(=N)N as the molecule, how does the Activity (Mus musculus [12]) read?
Answer: Its Activity is -4.1%.

Question: What about the Activity (Mus musculus [13]) of the same molecule?
Answer: The Activity was -7%.

Question: And the Activity (Mus musculus [4])?
Answer: Its Activity is “Non-toxic”.

Question: Which results are given for N=C(N)NCc1ccccc1Br?
Answer: Activity (Mus musculus [14]): 84%; Activity (Mus musculus [15]): -17.7%; Activity (Mus musculus [16]): -6%; Activity (Mus musculus [4]): Non-toxic

Question: Which Activity (Mus musculus [17]) does the source give for N=C(N)NCc1ccc(F)cc1 here?
Answer: The Activity was 56%.

Question: And the Activity (Mus musculus [18])?
Answer: Its Activity is -27.8%.

Question: And the Activity (Mus musculus [19])?
Answer: Its Activity is -14.7%.

Question: And the Activity (Mus musculus [4])?
Answer: The Activity was “Non-toxic”.

Question: What about the Activity (Mus musculus [20]) of the same molecule?
Answer: The Activity was -8.7%.

Question: And the Activity (Mus musculus [21])?
Answer: Its Activity is -26.8%.

Question: And the Activity (Mus musculus [22])?
Answer: Its Activity is 102%.

Question: What about the Activity (Mus musculus [23]) of the same molecule?
Answer: Its Activity is -7.8%.

Question: And the Activity (Mus musculus [24])?
Answer: Its Activity is -9.8%.

Question: What about the Activity (Mus musculus [25]) of the same molecule?
Answer: Its Activity is 93%.

Question: For NC(N)=NCc1ccc2c(c1)OCO2, which Activity (Mus musculus [12]) is on record?
Answer: The Activity was -18%.

Question: What about the Activity (Mus musculus [13]) of the same molecule?
Answer: Its Activity is -2%.

Question: What about the Activity (Mus musculus [4]) of the same molecule?
Answer: Its Activity is “Non-toxic”.

Question: For N=C(N)NCc1ccc(Cl)c(Cl)c1, which Activity (Mus musculus [26]) is on record?
Answer: The Activity was -38.3%.

Question: And the Activity (Mus musculus [27])?
Answer: Its Activity is 67%.

Question: What about the Activity (Mus musculus [28]) of the same molecule?
Answer: The Activity was -9.9%.

Question: What about the Activity (Mus musculus [4]) of the same molecule?
Answer: Its Activity is “Non-toxic”.

Question: For N=C(N)NCc1ccc(Cl)cc1, which Activity (Mus musculus [29]) is on record?
Answer: The Activity was -34.7%.

Question: And the Activity (Mus musculus [30])?
Answer: Its Activity is 59%.

Question: And the Activity (Mus musculus [31])?
Answer: Its Activity is -19.7%.

Question: What about the Activity (Mus musculus [4]) of the same molecule?
Answer: Its Activity is “Non-toxic”.

Question: And the Activity (Mus musculus [32])?
Answer: The Activity was -11%.

Question: And the Activity (Mus musculus [33])?
Answer: The Activity was -38.5%.

Question: What about the Activity (Mus musculus [34]) of the same molecule?
Answer: Its Activity is 71%.

Question: What about the Activity (Mus musculus [35]) of the same molecule?
Answer: The Activity was -7.3%.

Question: What about the Activity (Mus musculus [36]) of the same molecule?
Answer: The Activity was -15.6%.

Question: What about the Activity (Mus musculus [37]) of the same molecule?
Answer: Its Activity is 94%.

Question: Which Activity (Mus musculus [38]) does the source give for CC(C)=CCNc1ccccn1 here?
Answer: Its Activity is “inactive”.

Question: What about the Activity (Mus musculus [39]) of the same molecule?
Answer: Its Activity is “inactive”.

Question: And the Activity (Mus musculus [40])?
Answer: Its Activity is “inactive”.

Question: What about the Activity (Mus musculus [41]) of the same molecule?
Answer: The Activity was “inactive”.
